Measurements taken from patent US8598087B2, “Crystalline form of 4-[5-[3-chloro-5-(trifluoromethyl)phenyl]-4, 5-dihydro-5-(trifluoromethyl)-3-isoxazolyl]-N-[2-0X0-2-[(2,2,2-trifluoroethyl)amino]ethyl]-1- naph-thalenecarboxamide” (E. I. du Pont de Nemours and Company, priority 2010, dated 2013).
“Also recorded” adds a separate entry of the source.

Experiments:
Format in all cases: physicochemical
[1] = Interconversion slurry experiments (relative stability of solid forms, XRPD)
Protocol: Interconversion slurry experiments were performed in a variety of solvents at different temperatures. Sufficient amounts of Compound 1 were added to solvents in vials so that excess solid remained. The mixtures were agitated in sealed vials at the selected temperature and the solids were isolated by filtration after the selected time and analyzed by XRPD.

[2] = Physical stability of amorphous Compound 1 (vapor stress and slurry, XRPD)
Protocol: The physical stability of the amorphous material was characterized. […] Amorphous Compound 1 was also slurried in methanol\water (1:1) for 5 days at 60° C. resulting in irregular fragments of crystals determined to be Form B by XRPD.

[3] = Physical stability / hygroscopicity of polymorph Form A (relative humidity exposure); conditions: 5 to 95% relative humidity at 25° C. (5 hours)
Protocol: The physical stability of polymorph Form A was characterized. A samples of Form A exposed to 5 to 95% relative humidity at 25° C.

[4] = Physical stability of polymorph Form B under humidity stress (XRPD)
Vacuum drying experiment = experiment: Vacuum drying experiment

**Q.** For O=C(CNC(=O)c1ccc(C2=NOC(c3cc(Cl)cc(C(F)(F)F)c3)(C(F)(F)F)C2)c2ccccc12)NCC(F)(F)F (racemic) [Compound 1, 4-[5-[3-chloro-5-(trifluoromethyl)phenyl]-4,5-dihydro-5-(trifluoromethyl)-3-isoxazolyl]-N-[2-oxo-2-[(2,2,2-trifluoroethyl)amino]ethyl]-1-naphthalenecarboxamide], which “solid form yielded by slurry (XRPD)” value ([1]; acetonitrile, 3 days at 83° C.) is on record?
**A.** The value was “Pattern G solid”.

**Q.** And the “solid form yielded by slurry (XRPD)” value ([1]; acetonitrile, 8 days at 0° C.)?
**A.** Its value is “Pattern G solid”.

**Q.** And the “solid form yielded by slurry (XRPD)” value ([1]; acetonitrile/water (9:1), 3 days at 83° C.)?
**A.** Its value is “polymorph Form B”.

**Q.** And the “solid form yielded by slurry (XRPD)” value ([1]; acetonitrile/water (9:1), 8 days at 0° C.)?
**A.** The value was “Pattern G solid”.

**Q.** Which “physical stability of the amorphous solid” value ([2]; pure solid form, conclusion of vapor stress and slurry) does the source give for O=C(CNC(=O)c1ccc(C2=NOC(c3cc(Cl)cc(C(F)(F)F)c3)(C(F)(F)F)C2)c2ccccc12)NCC(F)(F)F (centres unmarked) [Amorphous Compound 1, 4-[5-[3-chloro-5-(trifluoromethyl)phenyl]-4,5-dihydro-5-(trifluoromethyl)-3-isoxazolyl]-N-[2-oxo-2-[(2,2,2-trifluoroethyl)amino]ethyl]-1-naphthalenecarboxamide] here?
**A.** The value was “physically unstable and readily crystallized”.

**Q.** And the “solid form obtained after slurry (by XRPD)” value ([2]; slurried in methanol\water (1:1) for 5 days at 60° C.)?
**A.** Its value is “Form B”.

**Q.** What about the “solid form obtained after vapor stress (by XRPD)” value ([2]; vapor stressed under acetonitrile at 25° C. for 2 days) of the same compound?
**A.** Its value is “Pattern G material”.

**Q.** With O=C(CNC(=O)c1ccc(C2=NOC(c3cc(Cl)cc(C(F)(F)F)c3)(C(F)(F)F)C2)c2ccccc12)NCC(F)(F)F (centres unmarked) [Form A, 4-[5-[3-chloro-5-(trifluoromethyl)phenyl]-4,5-dihydro-5-(trifluoromethyl)-3-isoxazolyl]-N-[2-oxo-2-[(2,2,2-trifluoroethyl)amino]ethyl]-1-naphthalenecarboxamide] as the compound, how does the hygroscopicity [3] read?
**A.** Its hygroscopicity is “non-hygroscopic”.

**Q.** And the “weight change on exposure to relative humidity” value [3]?
**A.** The value was “negligible weight change”.

**Q.** And the “relative physical stability of solid forms” value (“relative physical stability” for short) ([1]; in acetonitrile)?
**A.** Its value is “metastable solid form”.

**Q.** With O=C(CNC(=O)c1ccc(C2=NOC(c3cc(Cl)cc(C(F)(F)F)c3)(C(F)(F)F)C2)c2ccccc12)NCC(F)(F)F (centres unmarked) [Form B, 4-[5-[3-chloro-5-(trifluoromethyl)phenyl]-4,5-dihydro-5-(trifluoromethyl)-3-isoxazolyl]-N-[2-oxo-2-[(2,2,2-trifluoroethyl)amino]ethyl]-1-naphthalenecarboxamide] as the compound, how does the “change by XRPD after humidity stress” value ([4]; 60% relative humidity (25° C.) for 1 month) read?
**A.** The value was “unchanged by XRPD”.

**Q.** What about the “change by XRPD after humidity stress” value ([4]; 75% relative humidity (40° C.) for 1 month) of the same compound?
**A.** Its value is “unchanged by XRPD”.

**Q.** And the “physical stability of Form B” value ([4]; pure solid form, conclusion of humidity stress conditions tested)?
**A.** Its value is “physically stable; also recorded: stable under the conditions tested”.

**Q.** What about the “relative physical stability” value ([1]; in organic solvent/water mixtures especially methanol/water) of the same compound?
**A.** Its value is “most stable solid form”.

**Q.** Which “relative physical stability” value ([1]; in acetonitrile) does the source give for O=C(CNC(=O)c1ccc(C2=NOC(c3cc(Cl)cc(C(F)(F)F)c3)(C(F)(F)F)C2)c2ccccc12)NCC(F)(F)F (centres unmarked) [Pattern G solid] here?
**A.** The value was “most stable solid form”.

**Q.** What about the “solid form obtained after vacuum drying” value (Vacuum drying experiment; vacuum drying (36-68 mtorr) at 50° C. for 4 hours) of the same compound?
**A.** Its value is “Form A”.

**Q.** And the “solid form obtained after vacuum drying” value (Vacuum drying experiment; vacuum drying (51 mtorr) at 70° C. for 5 hours)?
**A.** The value was “solid glass”.
